Measurements from patent US20210186888A1, “NANOPARTICLE COMPOSITIONS FOR CANCER TREATMENT” (priority 2017, published 2021).

How the values were obtained:
Type in all cases: cell-based
BT-549 = assay: MTT assay
Protocol: (§1) MTT assay: Cells were grown to log phase in their respective media, washed in PBS, trypsinized, and plated on 96-well plates at a density of 3,000-6,000 cells per well in 200 μL of complete media. Cells were allowed to recover for 18 hours and were then exposed to AgNPs for 48 or 72 hours. For NAC studies, cells were exposed to 4 mM NAC (Sigma Aldrich) diluted in growth media for 6 h prior to AgNP treatment. Media containing NAC was removed and replaced with media containing AgNPs. For induction of EMT, cells were exposed to 10 ng/ml TGF-β1 (R&D Systems) for 6 days at 37° C., prior to AgNP treatment. Media containing AgNPs were replaced with 200 μL of media containing 0.5 mg/mL MTT and incubated for 1 hour at 37° C. Medium was removed, and cells were lysed in 200 μL of DMSO and read using a Molecular Devices Emax Precision Microplate Reader at 560 nm and corrected for background at 650 nm.
ZEB1 Knockdown: BT549 cells were plated in 60mm tissue culture plates and allowed to grow to 80-90% confluence. Each plate was then transfected with a non-coding control shRNA plasmid, or a plasmid containing shRNA targeted against ZEB1. Knockdown constructs used in this study were obtained from Sigma Aldrich (Mission shRNA TRCN0000369267 and TRCN0000369266). Each plate was transfected using 1 μg plasmid in conjunction with Lipofectamine 2000 (Invitrogen) according to the manufacturer's protocol. The following day cells were reseeded and were maintained in medium containing puromycin (2 μg/ml). ZEB1 expression levels were verified using immunoblot prior to experimentation.
TNBC cell lines which can be further classified as the CLBC (MDA-MB-231, BT-549, SUM-159) or basal (BT-20, MDA-MB-468) molecular subtypes were tested, as were luminal A (MCF-7), HER-2+ (SKBR3), and non-cancerous breast (MCF-10A, 184B5, iMEC) cell lines (FIG. 2A). […] As with the 48 h treatment, the CLBC cell lines were the most sensitive to AgNPs following a 72 h treatment.
(§2) IC50 calculations were performed using the prism software. IC50 in Table II are shown in total NP (AgNP) concentration and silver (Ag) content. At least 3 independent experiments were conducted for each cell line.
BT549 claudin-low breast cancer cells were treated with either AgNPs or KRIBB11, an HSF1 inhibitor, independently and in combination. The treated cells were then assessed for cell viability by MTT assay (FIG. 17A).
BT549 claudin-low breast cancer cells were treated with either AgNPs or 17-DMAG, an HSP90 inhibitor, independently and in combination. Treated cells were then assessed for cell viability by MTT assay (FIG. 19A). […] Combination treatment of both AgNPs and […]

MDA-MB-231 = assay: MTT assay
Protocol: as §1
As with the 48 h treatment, the CLBC cell lines were the most sensitive to AgNPs following a 72 h treatment.
as §2

[1] = tested on: PERK arm of the UPR in MDA-MB-231 cells; assay: Immunoblotting of PERK arm activation (p-eIF2α); settings: 4 h
Protocol: MDA-MB-231 cells were treated with 1 μM of the ER stress inducer, thapsigargin, 25 nM of the PERK inhibitor (PERKi), […], or the combination of thapsigargin and GSK2606414 for 4 h to verify the efficacy of the PERKi, GSK2606414. […] To further evaluate the role of ER stress in AgNP-induced cytotoxicity, MDA-MB-231 cells were treated with increasing doses of AgNPs alone or in combination with the PERKi, GSK2606414, for 48 h to determine if PERK inhibition provides protection against AgNP-induced cytotoxicity.

BT-20 = assay: MTT assay
Protocol: as §1
TNBC cell lines which can be further classified as the CLBC (MDA-MB-231, BT-549, SUM-159) or basal (BT-20, MDA-MB-468) molecular subtypes were tested, as were luminal A (MCF-7), HER-2+ (SKBR3), and non-cancerous breast (MCF-10A, 184B5, iMEC) cell lines (FIG. 2A). […]
BT20 basal-like breast cancer cells were treated with either AgNPs or KRIBB11, an HSF1 inhibitor, independently and in combination. Treated cells were then assessed for cell viability by MTT assay (FIG. 18A).

[2] = tested on: AgNP sensitive cell lines; assay: ROS detection with H2DCF-DA; settings: 24 h 10 mM NAC

## CO[C@H]1/C=C\C=C(/C)C(=O)NC2=CC(=O)C(NCCN(C)C)=C(C[C@@H](C)C[C@H](OC)[C@H](O)[C@@H](C)/C=C(\C)[C@@H]1OC(N)=O)C2=O [17-DMAG]
BT-549; BT549, single agents
  sensitivity to AgNPs versus HSP90 inhibition (dose reduction index): equally sensitive

## Cn1cc(-c2ccc3c(c2)CCN3C(=O)Cc2cccc(C(F)(F)F)c2)c2c(N)ncnc21 [GSK2606414]
MDA-MB-231; MDA-MB-231, 48 h
  viability, AgNPs alone vs in combination with the PERKi: no significant difference in viability
[1]; MDA-MB-231, 25 nM PERKi + 1 μM thapsigargin
  p-eIF2α expression, co-treatment with thapsigargin vs thapsigargin alone: decreased p-eIF2α expression

## CNc1ccc([N+](=O)[O-])c(Nc2ccc3[nH]ncc3c2)n1 [KRIBB11]
BT-20; BT20, AgNPs + HSF1 inhibitor
  combination treatment with AgNPs (combination index): synergistic response
BT-20; BT20, single agents
  sensitivity to AgNPs versus HSF1 inhibition (dose reduction index): marginally more sensitive to AgNPs
BT-549; BT549, AgNPs + HSF1 inhibitor
  combination treatment with AgNPs (combination index): synergistic response
BT-549; BT549, AgNPs + HSP90 inhibitor
  combination treatment with AgNPs (combination index): additive response
BT-549; BT549, single agents
  sensitivity to AgNPs versus HSF1 inhibition (dose reduction index): equally sensitive

## CC(=O)N[C@@H](CS)C(=O)O [NAC, N-acetylcysteine]
BT-549; BT-549, 4 mM NAC 6 h before 48 h AgNP, Ag 62.5-125 μg/ml
  effect of NAC pre-treatment on AgNP cytotoxicity: significantly decreased cytotoxicity
MDA-MB-231; MDA-MB-231, 4 mM NAC 6 h before 48 h AgNP, Ag 15.625-62.5 μg/ml
  effect of NAC pre-treatment on AgNP cytotoxicity: significantly decreased cytotoxicity
[2]
  basal ROS after NAC treatment: partially mitigate some of the basal ROS

## C/C=C(/C)C(=O)O[C@H]1C(C)=C2[C@H]([C@@H]1OC(=O)CCCCCCC)[C@@](C)(OC(C)=O)C[C@H](OC(=O)CCC)[C@@]1(O)[C@H]2OC(=O)[C@@]1(C)O [thapsigargin, Thapsigargin]
[1]; MDA-MB-231, 1 μM
  phosphorylation of eIF2α (p-eIF2α): increase in phosphorylation of the downstream effector, eIF2α
